Converted amounts (≈) assume the structure as drawn. “And” between values parts separate entries of the source, which are not always exact repeats. Equal entries are not always repeated. Blank lines part the entries; values can stand above or below the molecule they belong to.
Legend:
Assay in all cases: ≥ marks a high value that may be exact or a test limit, other limits are often not marked, values filed in µg/mL are converted to µM
[1] = test system: Bacillus subtilis ATCC 11060
[2] = test system: Enterococcus faecalis ATCC 29212
Escherichia coli 078 = test system: Escherichia coli 078
[3] = test system: Escherichia coli ATCC 25922
[4] = test system: Escherichia coli CMCC 44102
[5] = test system: Escherichia coli CVCC 1515
Escherichia coli ER2566 = test system: Escherichia coli ER2566
Escherichia coli K88 = test system: Escherichia coli K88
Escherichia coli UB1005 = test system: Escherichia coli UB1005
[6] = test system: Pseudomonas aeruginosa ATCC 10419
[7] = test system: Pseudomonas aeruginosa ATCC 21625
[8] = test system: Pseudomonas aeruginosa ATCC 21630
[9] = test system: Pseudomonas aeruginosa ATCC 27853
[10] = test system: Salmonella enterica subsp. enterica serovar Pullorum C79-13
[11] = test system: Salmonella enterica subsp. enterica serovar Typhimurium ATCC 14028
[12] = test system: Salmonella enterica subsp. enterica serovar Typhimurium C77-31
[13] = test system: Staphylococcus aureus ATCC 25923
[14] = test system: Staphylococcus aureus ATCC 29213
[15] = test system: Staphylococcus epidermidis ATCC 12228
[16] = test system: Aeromonas salmonicida MT004
[17] = test system: Aeromonas salmonicida MT423
[18] = test system: Escherichia coli NCIMB 12260
[19] = test system: Lactococcus garvieae MT2055
[20] = test system: Lactococcus garvieae MT2291
[21] = test system: Vibrio anguillarum MT1741
[22] = test system: Vibrio anguillarum MT1742
Yersinia ruckeri MT252 = test system: Yersinia ruckeri MT252
[23] = test system: Listeria monocytogenes KCTC 19111
[24] = test system: Pseudomonas aeruginosa ATCC 15692
[25] = test system: Salmonella typhimurium KCTC 1926
[26] = test system: Staphylococcus epidermidis KCTC 1917
Bacillus subtilis 168 HT = test system: Bacillus subtilis 168 HT
Escherichia coli MG1655 = test system: Escherichia coli MG1655
Acinetobacter baumannii = test system: Acinetobacter baumannii
[27] = test system: Pseudomonas aeruginosa ATCC 10662
Staphylococcus aureus = test system: Staphylococcus aureus
[28] = test system: Staphylococcus epidermidis ATCC 1435
[29] = test system: Candida albicans ATCC 5314
[30] = test system: Streptococcus mutans ATCC UA159
[31] = test system: Streptococcus sanguinis ATCC 10556

SMILES: NCCCC[C@H](NC(=O)[C@H](Cc1ccc(O)cc1)NC(=O)[C@H](Cc1c[nH]c2ccccc12)NC(=O)[C@H](CCCCN)NC(=O)[C@H](CCCCN)NC(=O)[C@H](Cc1ccc(O)cc1)NC(=O)[C@H](Cc1c[nH]c2ccccc12)NC(=O)[C@H](CCCCN)NC(=O)[C@H](CCCCN)NC(=O)[C@H](Cc1ccc(O)cc1)NC(=O)[C@H](Cc1c[nH]c2ccccc12)NC(=O)[C@H](CCCCN)NC(=O)[C@H](CCCCN)NC(=O)[C@H](Cc1ccc(O)cc1)NC(=O)[C@H](Cc1c[nH]c2ccccc12)NC(=O)[C@@H](N)CCCCN)C(N)=O [KWYKKWYKKWYKKWYK]
MIC [3]: 1 µM (≈ 2.44 µg/mL)
MIC [23]: 1 µM (≈ 2.44 µg/mL)
MIC [24]: 2 µM (≈ 4.88 µg/mL)
MIC [25]: 2 µM (≈ 4.88 µg/mL)
MIC [13]: 2 µM (≈ 4.88 µg/mL)
MIC [26]: 1 µM (≈ 2.44 µg/mL)

SMILES: CC[C@H](C)[C@H](N)C(=O)N[C@@H](CCCCN)C(=O)N[C@H](C(=O)N[C@H](C(=O)N[C@@H](C)C(=O)N1CCC[C@H]1C(=O)N[C@@H](CCCCN)C(=O)N[C@@H](CCCCN)C(=O)N[C@H](C(=O)N[C@@H](CCCCN)C(=O)N[C@@H](CC(C)C)C(=O)O)[C@@H](C)CC)C(C)C)[C@@H](C)CC [IKIVAPKKIKL]
MIC (Bacillus subtilis 168 HT): ≥ 102 µM
MIC (Escherichia coli MG1655): ≥ 102 µM

Continued, in another order:

MIC [1]: 2.01 µM (≈ 7.39 µg/mL)
MIC [2]: 1 µM (≈ 3.69 µg/mL)
MIC (Escherichia coli 078): 4.01 µM (≈ 14.8 µg/mL)
MIC [3]: 1 µM and 2.01 µM
MIC [4]: 0.515 µM (≈ 1.9 µg/mL)
MIC [5]: 4.01 µM (≈ 14.8 µg/mL)
MIC (Escherichia coli ER2566): 1 µM (≈ 3.69 µg/mL)
MIC (Escherichia coli K88): 0.515 µM (≈ 1.9 µg/mL)
MIC (Escherichia coli UB1005): 2.01 µM (≈ 7.39 µg/mL)
MIC [6]: 4.01 µM (≈ 14.8 µg/mL)
MIC [7]: 4.01 µM (≈ 14.8 µg/mL)
MIC [8]: 2.01 µM (≈ 7.39 µg/mL)
MIC [9]: 4.01 µM (≈ 14.8 µg/mL)
MIC [10]: 4.01 µM (≈ 14.8 µg/mL)
MIC [11]: 2.01 µM (≈ 7.39 µg/mL)
MIC [12]: 4.01 µM (≈ 14.8 µg/mL)
MIC [13]: 8.02 µM (≈ 29.6 µg/mL)
MIC [14]: 2.01 µM (≈ 7.39 µg/mL)
MIC [15]: 2.01 µM (≈ 7.39 µg/mL)
SMILES: CC[C@H](C)[C@H](NC(=O)[C@H](CCCCN)NC(=O)[C@H](CCCCN)NC(=O)[C@H](CC(C)C)NC(=O)[C@H](CCCN=C(N)N)NC(=O)[C@H](Cc1c[nH]c2ccccc12)NC(=O)[C@H](CCCN=C(N)N)NC(=O)[C@@H](NC(=O)[C@H](CCCCN)NC(=O)[C@H](Cc1c[nH]c2ccccc12)NC(=O)[C@H](CCCN=C(N)N)NC(=O)[C@H](CC(C)C)NC(=O)[C@H](CCCN=C(N)N)NC(=O)[C@H](CCCN=C(N)N)NC(=O)[C@H](Cc1ccccc1)NC(=O)[C@@H](N)CCCN=C(N)N)[C@@H](C)O)C(=O)N[C@H]1CSSC[C@@H](C(=O)N[C@H](C(N)=O)C(C)C)NC(=O)[C@H](C(C)C)NC(=O)[C@@H]2CSSC[C@H](NC(=O)[C@H](Cc3ccc(O)cc3)NC1=O)C(=O)N[C@@H](CCCN=C(N)N)C(=O)N[C@@H](CCCN=C(N)N)C(=O)N[C@@H](CCCN=C(N)N)C(=O)N[C@@H](Cc1ccccc1)C(=O)N2 [RFRRLRWKTRWRLKKICYCRRRFCVCV]

MIC [16]: 0.528 µM (≈ 1.6 µg/mL)
MIC [18]: 0.528 µM (≈ 1.6 µg/mL)
MIC [19]: 0.528 µM (≈ 1.6 µg/mL)
MIC [20]: 0.528 µM (≈ 1.6 µg/mL)
MIC [21]: 0.528 µM (≈ 1.6 µg/mL)
MIC [22]: 0.528 µM (≈ 1.6 µg/mL)
MIC (Yersinia ruckeri MT252): 0.528 µM (≈ 1.6 µg/mL)
SMILES: CC[C@H](C)[C@H](NC(=O)CNC(=O)[C@H](CCCCN)NC(=O)[C@@H](NC(=O)[C@@H](NC(=O)[C@H](Cc1cnc[nH]1)NC(=O)[C@H](Cc1cnc[nH]1)NC(=O)[C@@H](NC(=O)[C@@H](N)Cc1ccccc1)[C@@H](C)CC)[C@@H](C)CC)[C@@H](C)CC)C(=O)N[C@@H](Cc1ccccc1)C(=O)N[C@@H](Cc1cnc[nH]1)C(=O)N[C@H](C(=O)NCC(=O)N[C@@H](CCCCN)C(=O)N[C@@H](CCSC)C(=O)N[C@H](C(=O)N[C@@H](Cc1cnc[nH]1)C(=O)N[C@@H](CO)C(=O)N[C@@H](C)C(=O)N[C@H](C(=O)N[C@@H](CC(N)=O)C(=O)N[C@@H](CCCN=C(N)N)C(=O)N[C@@H](CCCN=C(N)N)C(=O)N[C@@H](CCCN=C(N)N)C(=O)N[C@@H](Cc1cnc[nH]1)C(=O)O)[C@@H](C)CC)[C@@H](C)CC)[C@@H](C)CC [FIHHIIKGIFHIGKMIHSAINRRRH]
MIC [17]: 0.528 µM (≈ 1.6 µg/mL)

MIC (Acinetobacter baumannii): 1.2 µM (≈ 3.1 µg/mL)
MIC [3]: 1.2 µM (≈ 3.1 µg/mL)
MIC [27]: 9.66 µM (≈ 25 µg/mL)
MIC [13]: 1.2 µM (≈ 3.1 µg/mL)
MIC (Staphylococcus aureus): 2.4 µM (≈ 6.2 µg/mL)
MIC [28]: 1.2 µM (≈ 3.1 µg/mL)
SMILES: CC[C@H](C)[C@H](NC(=O)[C@H](Cc1cnc[nH]1)NC(=O)[C@H](Cc1cnc[nH]1)NC(=O)[C@H](Cc1ccccc1)NC(=O)[C@@H](N)Cc1ccccc1)C(=O)N[C@@H](Cc1ccccc1)C(=O)N[C@@H](CCCN=C(N)N)C(=O)NCC(=O)N[C@@H](CCCCN)C(=O)N[C@H](C(=O)N[C@@H](Cc1cnc[nH]1)C(=O)N[C@H](C(=O)NCC(=O)N[C@@H](CCCCN)C(=O)N[C@H](C(=O)N[C@H](C(=O)N[C@@H](Cc1cnc[nH]1)C(=O)N[C@@H](CCCN=C(N)N)C(=O)N[C@@H](CC(C)C)C(=O)N[C@H](C(=O)N[C@H](C(=O)NCC(N)=O)[C@@H](C)O)C(C)C)[C@@H](C)CC)[C@@H](C)O)C(C)C)C(C)C [FFHHIFRGKVHVGKTIHRLVTG]

MIC [29]: 12.6 µM (≈ 32 µg/mL)
MIC [13]: 25.1 µM (≈ 64 µg/mL)
MIC (Staphylococcus aureus): 12.6 µM (≈ 32 µg/mL)
MIC [30]: 6.28 µM (≈ 16 µg/mL)
MIC [31]: 25.1 µM (≈ 64 µg/mL)
SMILES: CC[C@H](C)[C@H](NC(=O)[C@H](CCCCN)NC(=O)[C@H](CCCN=C(N)N)NC(=O)[C@@H](NC(=O)[C@@H](N)Cc1ccc(O)cc1)[C@@H](C)CC)C(=O)N[C@@H](CCCN=C(N)N)C(=O)N[C@@H](CCCN=C(N)N)C(=O)N[C@@H](Cc1ccccc1)C(=O)N[C@@H](Cc1ccccc1)C(=O)N[C@@H](CCCCN)C(=O)N[C@@H](CCCCN)C(=O)N[C@@H](CCCN=C(N)N)C(=O)N[C@@H](Cc1ccccc1)C(=O)N[C@@H](CCCCN)C(=O)N[C@@H](Cc1ccccc1)C(=O)N[C@@H](CCCN=C(N)N)C(=O)N[C@@H](CCCCN)C(=O)N[C@@H](CCCCN)C(N)=O [YIRKIRRFFKKRFKFRKK]
